Reference: ChEMBL document CHEMBL1201862, “PubChem BioAssay data set” (2004)
The source made the active and inactive calls.

Tests used:
[1] = target: T1, Beta-galactosidase (Escherichia coli, UniProt Q8VNN2); assay: Dose response counterscreen for EBI2 assay utilizing the enzyme, b-galactosidase.; type: functional
[2] = target: T2, Low molecular weight phosphotyrosine protein phosphatase (Homo sapiens, UniProt P24666); type: functional; conditions: read-out: IC50_Mean;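 also: Dose-response confirmation assay measuring inhibition of LMPTP enzyme activity by fluorescence intensity read-out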
T2 sequence (P24666 whole entry): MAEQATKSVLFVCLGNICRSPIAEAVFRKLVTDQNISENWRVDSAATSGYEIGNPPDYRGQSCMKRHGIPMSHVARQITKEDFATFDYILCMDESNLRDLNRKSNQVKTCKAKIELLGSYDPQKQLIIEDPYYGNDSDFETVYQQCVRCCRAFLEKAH

[3] = target: T3, DNA repair protein RAD52 homolog (Homo sapiens, UniProt P43351); type: functional, biochemical
T3 sequence (P43351 whole entry): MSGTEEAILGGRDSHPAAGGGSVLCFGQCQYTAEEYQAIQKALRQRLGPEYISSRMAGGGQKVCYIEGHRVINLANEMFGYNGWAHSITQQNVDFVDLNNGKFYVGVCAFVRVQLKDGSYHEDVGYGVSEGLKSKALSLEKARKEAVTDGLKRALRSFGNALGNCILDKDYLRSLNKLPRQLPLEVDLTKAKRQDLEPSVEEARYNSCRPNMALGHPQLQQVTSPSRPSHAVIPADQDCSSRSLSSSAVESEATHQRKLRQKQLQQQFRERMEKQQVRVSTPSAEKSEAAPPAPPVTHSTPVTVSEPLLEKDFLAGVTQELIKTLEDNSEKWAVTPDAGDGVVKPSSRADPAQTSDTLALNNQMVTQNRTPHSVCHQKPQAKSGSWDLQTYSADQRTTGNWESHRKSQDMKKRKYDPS

[4] = target: T4, DNA repair and recombination protein RAD54-like (Homo sapiens, UniProt Q92698); assay: inhibitors of human RAD54 branch migration, confirmation, biochemical, fluorescence, cherry-picked samples, dose series (AID 651657); type: functional
T4 sequence (Q92698 whole entry): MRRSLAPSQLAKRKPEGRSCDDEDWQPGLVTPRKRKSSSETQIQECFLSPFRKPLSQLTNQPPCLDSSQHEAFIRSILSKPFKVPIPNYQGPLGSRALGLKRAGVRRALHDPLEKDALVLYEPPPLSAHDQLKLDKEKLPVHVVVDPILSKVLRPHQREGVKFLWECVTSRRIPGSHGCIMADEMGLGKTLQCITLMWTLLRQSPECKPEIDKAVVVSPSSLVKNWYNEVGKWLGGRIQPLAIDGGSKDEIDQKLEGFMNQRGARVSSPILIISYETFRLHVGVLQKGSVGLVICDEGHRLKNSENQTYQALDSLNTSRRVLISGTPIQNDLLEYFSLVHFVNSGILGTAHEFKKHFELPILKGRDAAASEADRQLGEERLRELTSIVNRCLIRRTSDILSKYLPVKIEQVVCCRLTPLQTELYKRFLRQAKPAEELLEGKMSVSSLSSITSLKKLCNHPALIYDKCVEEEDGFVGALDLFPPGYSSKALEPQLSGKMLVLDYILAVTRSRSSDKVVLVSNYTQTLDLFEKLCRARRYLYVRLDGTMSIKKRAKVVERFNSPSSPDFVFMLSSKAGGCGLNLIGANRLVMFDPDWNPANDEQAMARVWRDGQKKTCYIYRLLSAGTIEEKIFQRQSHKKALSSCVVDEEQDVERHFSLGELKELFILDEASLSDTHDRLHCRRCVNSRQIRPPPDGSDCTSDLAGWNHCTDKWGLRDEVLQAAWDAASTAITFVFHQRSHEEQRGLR

[5] = target: T5, Protein skinhead-1 (Caenorhabditis elegans, UniProt P34707); type: functional
T5 sequence (P34707 whole entry): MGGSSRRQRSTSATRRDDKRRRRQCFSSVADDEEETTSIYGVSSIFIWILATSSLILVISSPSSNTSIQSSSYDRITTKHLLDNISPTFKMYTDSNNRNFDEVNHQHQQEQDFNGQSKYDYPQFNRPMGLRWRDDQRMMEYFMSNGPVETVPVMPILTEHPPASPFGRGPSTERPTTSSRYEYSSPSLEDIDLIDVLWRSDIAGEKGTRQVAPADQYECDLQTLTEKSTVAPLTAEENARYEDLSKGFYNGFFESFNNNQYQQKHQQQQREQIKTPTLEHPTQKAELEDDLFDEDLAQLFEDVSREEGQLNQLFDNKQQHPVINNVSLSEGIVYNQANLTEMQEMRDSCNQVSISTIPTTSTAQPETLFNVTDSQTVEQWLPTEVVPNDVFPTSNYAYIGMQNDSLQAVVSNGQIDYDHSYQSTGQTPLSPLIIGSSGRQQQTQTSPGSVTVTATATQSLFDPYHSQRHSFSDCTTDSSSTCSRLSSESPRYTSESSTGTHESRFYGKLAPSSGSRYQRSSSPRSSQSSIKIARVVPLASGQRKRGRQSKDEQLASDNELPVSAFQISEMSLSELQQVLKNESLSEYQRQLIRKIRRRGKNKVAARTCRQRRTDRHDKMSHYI

[6] = target: T1, Beta-galactosidase; assay: PubChem AID 485352; type: functional
[7] = target: T6, Type-1 angiotensin II receptor (Homo sapiens, UniProt P30556); assay: AT1 receptor antagonists, dose response, selectivity assay for APJ receptor antagonist project, cell-based, uHTS hits (AID 463214); type: functional;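 also: antagonist potency against angiotensin II stimulated AT1 response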
T6 sequence (P30556 whole entry): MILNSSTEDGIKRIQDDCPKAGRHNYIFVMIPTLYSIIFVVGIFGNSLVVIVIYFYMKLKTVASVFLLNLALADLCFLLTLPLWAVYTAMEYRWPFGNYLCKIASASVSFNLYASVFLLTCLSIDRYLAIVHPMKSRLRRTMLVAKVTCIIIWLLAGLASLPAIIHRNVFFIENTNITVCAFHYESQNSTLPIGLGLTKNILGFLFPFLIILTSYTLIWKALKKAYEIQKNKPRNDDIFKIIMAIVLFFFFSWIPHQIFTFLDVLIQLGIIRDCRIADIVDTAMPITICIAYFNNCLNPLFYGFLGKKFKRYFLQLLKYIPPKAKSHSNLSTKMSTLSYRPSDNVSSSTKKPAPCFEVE

[8] = target: T7, Ubiquitin-conjugating enzyme E2 N (Homo sapiens, UniProt P61088); type: functional;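 also: Dose-response confirmation in a TR-FRET assay detecting UBC13-driven polyubiquitin chain formation, inhibition measured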
T7 sequence (P61088 whole entry): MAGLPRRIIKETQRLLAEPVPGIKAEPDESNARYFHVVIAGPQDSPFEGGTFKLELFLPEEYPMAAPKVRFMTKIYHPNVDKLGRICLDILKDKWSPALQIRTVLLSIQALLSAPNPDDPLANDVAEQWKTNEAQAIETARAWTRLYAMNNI

[9] = system: HEK293; assay: inhibitors of LMP1-driven NF-kB reporter, dose response, cell-based, HEK293, luciferase, cherry-pick (AID 588343); type: functional; conditions: Homo sapiens
[10] = control 3'UTR Renilla luciferase suppression, dose response, counter-screen for Shn3 inhibitor project, cell-based, Clone20-Shn3RL, cherry-picked (AID 624133); type: functional
[11] = target: Paired box protein Pax-8 (Homo sapiens, UniProt Q06710); assay: inhibitors of PAX8-driven TPO luciferase reporter, dose response, RMG-I cells, cherry-pick (AID 687027); type: functional, cell-based;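 also: luciferase reporter driven by Pax8 target thyroperoxidase promoter measured by SteadyGlo luminescence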
[12] = Shn3 3'UTR reporter inhibitors, dose response, cell-based, Clone20 osteoblasts, firefly luciferase, cherry-picked (AID 624132); type: functional;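 also: firefly luciferase luminescence from reporter carrying the Shn3 3'UTR in osteoblasts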
[13] = cytotoxicity toward NIH3T3 fibroblasts, dose response, counter-screen, cell-based, ATP luminescence, mouse fibroblasts (AID 2010); type: functional;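 also: cells exposed to compound for about 90 hours before reading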
[14] = target: T8, Adenosylmethionine-8-amino-7-oxononanoate aminotransferase (Mycobacterium tuberculosis, UniProt P9WQ81); assay: Mycobacterium tuberculosis BioA enzyme inhibitor Measured in Biochemical System Using Plate Reader - 2163-02_Inhibitor_Dose_CherryPick_Activity.; type: functional, Mycobacterium tuberculosis UT205
T8 sequence (P9WQ81 whole entry): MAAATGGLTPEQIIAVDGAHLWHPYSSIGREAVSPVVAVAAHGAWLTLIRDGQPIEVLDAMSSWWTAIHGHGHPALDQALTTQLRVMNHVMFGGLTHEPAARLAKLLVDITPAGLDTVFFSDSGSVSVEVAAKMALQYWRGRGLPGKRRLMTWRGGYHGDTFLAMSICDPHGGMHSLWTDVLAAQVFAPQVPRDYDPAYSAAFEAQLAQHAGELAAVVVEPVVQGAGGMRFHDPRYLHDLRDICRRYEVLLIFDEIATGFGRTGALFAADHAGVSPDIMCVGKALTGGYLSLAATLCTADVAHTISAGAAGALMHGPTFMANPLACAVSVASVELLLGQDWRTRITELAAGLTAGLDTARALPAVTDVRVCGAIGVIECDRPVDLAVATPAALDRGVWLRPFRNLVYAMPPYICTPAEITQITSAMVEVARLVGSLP

[15] = inhibitors of intracellular T. cruzi replication, confirmation, NIH3T3 host cells, beta-gal luminescence (AID 2044); type: functional, cell-based;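 also: intracellular parasites grown in NIH/3T3 mouse fibroblasts as host cells; luminescent beta-galactosidase reporter signal from transgenic T. cruzi replicating inside host cells; inhibitors lower the luminescence signal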
[16] = target: T9, Corticotropin-releasing factor receptor 2/Corticotropin-releasing factor-binding protein (Homo sapiens, UniProt P24387+Q13324); assay: activators of CRF receptor 2 with binding protein – uHTS hits, confirmation (AID 602473); type: functional; conditions: read-out: EC50_Mean
T9 sequence (Q13324 whole entry): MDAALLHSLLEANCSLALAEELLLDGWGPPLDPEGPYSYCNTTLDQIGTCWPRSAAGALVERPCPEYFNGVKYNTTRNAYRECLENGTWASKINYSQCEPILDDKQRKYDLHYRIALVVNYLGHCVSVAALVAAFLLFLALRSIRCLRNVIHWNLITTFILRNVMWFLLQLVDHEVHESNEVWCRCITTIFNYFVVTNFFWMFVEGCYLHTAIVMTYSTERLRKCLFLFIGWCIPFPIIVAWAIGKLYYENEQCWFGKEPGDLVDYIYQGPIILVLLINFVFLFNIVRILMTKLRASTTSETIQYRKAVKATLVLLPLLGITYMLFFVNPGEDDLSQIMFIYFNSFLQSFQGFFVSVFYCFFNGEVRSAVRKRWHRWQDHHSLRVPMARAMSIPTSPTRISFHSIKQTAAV
T9 sequence (P24387 whole entry): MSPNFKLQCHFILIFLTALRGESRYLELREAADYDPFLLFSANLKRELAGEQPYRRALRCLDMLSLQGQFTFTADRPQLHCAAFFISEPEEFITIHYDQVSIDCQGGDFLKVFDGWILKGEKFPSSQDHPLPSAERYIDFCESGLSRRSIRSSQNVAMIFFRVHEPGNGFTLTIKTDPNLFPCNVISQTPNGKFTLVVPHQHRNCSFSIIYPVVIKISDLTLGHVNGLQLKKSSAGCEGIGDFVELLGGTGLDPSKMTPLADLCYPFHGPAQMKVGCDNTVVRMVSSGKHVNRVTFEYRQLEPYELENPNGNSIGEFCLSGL

[17] = HEp-2 cell cytotoxicity, dose response, cytotoxicity control for RSV inhibitor project, HTS (AID 2410); type: functional; conditions: human respiratory syncytial virus

T1 sequence (Q8VNN2 whole entry): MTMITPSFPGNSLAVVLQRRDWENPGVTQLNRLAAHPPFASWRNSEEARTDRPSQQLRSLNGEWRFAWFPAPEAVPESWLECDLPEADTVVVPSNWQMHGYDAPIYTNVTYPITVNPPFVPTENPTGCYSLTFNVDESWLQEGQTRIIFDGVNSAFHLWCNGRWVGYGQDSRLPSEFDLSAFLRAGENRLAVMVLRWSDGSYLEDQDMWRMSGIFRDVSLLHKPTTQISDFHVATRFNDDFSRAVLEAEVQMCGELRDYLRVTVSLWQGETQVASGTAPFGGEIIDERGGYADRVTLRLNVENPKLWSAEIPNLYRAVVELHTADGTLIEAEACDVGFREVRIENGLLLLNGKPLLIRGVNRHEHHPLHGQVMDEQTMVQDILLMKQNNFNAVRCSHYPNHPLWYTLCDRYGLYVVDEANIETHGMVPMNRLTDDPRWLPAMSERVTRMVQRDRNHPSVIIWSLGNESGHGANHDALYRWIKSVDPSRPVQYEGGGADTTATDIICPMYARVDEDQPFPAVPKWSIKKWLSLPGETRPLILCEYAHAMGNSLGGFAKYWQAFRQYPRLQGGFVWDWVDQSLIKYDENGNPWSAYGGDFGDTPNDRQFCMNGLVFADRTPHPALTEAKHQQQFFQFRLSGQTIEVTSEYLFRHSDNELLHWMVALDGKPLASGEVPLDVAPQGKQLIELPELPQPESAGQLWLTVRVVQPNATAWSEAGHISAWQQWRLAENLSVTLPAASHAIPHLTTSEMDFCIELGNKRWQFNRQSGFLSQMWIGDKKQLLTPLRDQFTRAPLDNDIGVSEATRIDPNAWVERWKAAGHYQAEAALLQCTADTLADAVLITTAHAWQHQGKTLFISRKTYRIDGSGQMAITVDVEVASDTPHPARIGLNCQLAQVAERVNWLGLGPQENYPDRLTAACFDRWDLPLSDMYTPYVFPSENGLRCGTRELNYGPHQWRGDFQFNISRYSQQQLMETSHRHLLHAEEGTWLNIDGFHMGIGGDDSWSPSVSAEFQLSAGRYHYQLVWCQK
Chain of Paired box protein Pax-8 (Q06710 whole entry): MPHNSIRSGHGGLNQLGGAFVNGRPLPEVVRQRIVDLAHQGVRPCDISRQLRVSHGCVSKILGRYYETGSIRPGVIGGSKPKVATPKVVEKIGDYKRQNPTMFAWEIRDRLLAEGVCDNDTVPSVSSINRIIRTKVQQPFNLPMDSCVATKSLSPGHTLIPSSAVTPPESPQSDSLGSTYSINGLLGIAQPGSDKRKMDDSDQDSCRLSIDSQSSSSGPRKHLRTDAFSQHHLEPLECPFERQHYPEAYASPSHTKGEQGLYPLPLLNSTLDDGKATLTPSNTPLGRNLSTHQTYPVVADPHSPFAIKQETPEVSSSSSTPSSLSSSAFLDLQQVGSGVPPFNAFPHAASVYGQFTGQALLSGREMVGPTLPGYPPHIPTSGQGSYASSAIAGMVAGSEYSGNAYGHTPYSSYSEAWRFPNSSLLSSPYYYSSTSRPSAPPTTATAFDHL

O=C(c1ccc(-n2cnnn2)cc1)N1CCN(C(c2ccccc2)c2ccccc2)CC1
IC50 [1]: > 80 µM (inactive)

Cn1c(CCN2CCN(c3ccccn3)CC2)nc2cc(NC(=O)COc3ccc([N+](=O)[O-])cc3)ccc21
IC50 [2]: 8.47 µM (active)

CCN1CCN(C(S)=Nc2ccc3nc(N4CCN(C)CC4)cc(C)c3c2)CC1
AC50 [3]: 4.49 µM (active) | AC50 [4]: 91.2 µM (active)

Clc1ccc(-c2csc(-c3ccncc3)n2)cc1
IC50 [5]: 4.45 µM (active)

O=C1OCC(CO)(CO)N=C1NNc1cc(Cl)ccc1Cl
EC50 [6]: > 40 µM (inactive) | IC50 [7]: 12.1 µM (active)

Cc1nc2ccccc2c2oc(C(=O)N3CCC(N4CCCCC4)CC3)cc12
IC50 [8]: > 20 µM (inactive) | AC50 [4]: 23.1 µM (active)

O=C(CN1CCCCC1)n1c2ccccc2c2ccccc21
AC50 [3]: 5.64 µM (active) | AC50 [4]: 12.1 µM (active)

COc1ccccc1-n1cc([C@@H]2C[C@H]3CN(c4ccccc4)C(=O)[C@]34CCCN24)cn1
AC50 [9]: 19 µM (active) | AC50 [10]: 1.8 µM (active) | AC50 [11]: 5.21 µM (active) | IC50 [5]: > 100 µM (inactive) | AC50 [12]: 1.46 µM (active)

COc1ccc(NC(=O)Nc2cccc3c2O[C@@H](CN(C)CC2CCCCC2)[C@@H](C)CN([C@H](C)CO)C3=O)cc1
EC50 [6]: > 40 µM (inactive) | IC50 [7]: > 40 µM (not active)

S=C(N/N=C/c1ccccc1)N1CCOCC1
EC50 [6]: > 40 µM (inactive) | IC50 [7]: 13.3 µM (active)

CC(C)(C)c1nnc(N/N=C/c2ccc(Br)cc2)n(N)c1=O
IC50 [1]: > 80 µM (inactive)

CC1=C(C#N)C(c2cccnc2)C2=C(O)CC(c3ccc(Cl)cc3)CC2=N1 (stereo not drawn)
EC50 [13]: 21.8 µM (active) | AC50 [14]: 0.67 µM (active) | EC50 [15]: 2.26 µM (active)

C=C(C)CSc1nc(N)c2c3c(sc2n1)CCC3
EC50 [16]: > 53 µM (inactive) | AC50 [14]: 18.2 µM (active)

NC(=O)C1CCCN(C(=O)NC2CCCCC2)C1 (stereo not drawn)
IC50 [5]: > 100 µM (inactive)

O=C(Nc1ccc(F)c(F)c1)c1ccc(-n2cncn2)c([N+](=O)[O-])c1
AC50 [14]: 1.49 µM (active) | CC50 [17]: 18.3 µM (active)

COc1ccccc1S(=O)(=O)N1CC[C@@H]2[C@H](CO)Nc3ccc(-c4cccc(C#N)c4)cc3[C@@H]21
AC50 [14]: 18.5 µM (active)

Cc1ccc(/C=C/c2ccc3cccc(O)c3n2)s1
IC50 [5]: > 100 µM (inactive)

O=C(COc1ccc(Br)cc1)N1CCN(C2CCCC2)CC1
IC50 [1]: > 80 µM (inactive)

CCn1c2ccccc2c2cc(/C=N/NC(=O)c3ccccc3)ccc21
AC50 [9]: 3.99 µM (active)
